{"source": "patent US20160219881A1", "about": "“HERBICIDALLY ACTIVE 2-HALOGEN-4-ALKYNYL-PHENYL-PYRAZOLIDINE-DIONE OR PYRROLIDINE-DIONE DERIVATIVES” (SYNGENTA LIMITED, priority 2013, published 2016)", "format_in_all_cases": "in vivo", "key": {"[1]": {"tested_on": "Triticum aestivum (TRZAW, winter wheat)", "experiment": "Test 1A glasshouse assay, pre-emergence herbicidal activity", "settings": "312 h, 13 days after application, read-out: Pre-Emergence Herbicidal Activity (% Phytotoxicity) TRZAW", "protocol": "(§1) Seeds of a variety of test species are sown in standard soil (usually sandy soil) in pots. After cultivation for one day (pre-emergence) or after 8 days cultivation (post-emergence) under controlled conditions in a glasshouse (at 24/16° C., day/night; 14 hours light; 65% humidity), the plants are sprayed with an aqueous spray solution derived from the formulation of the technical active ingredient (compound) in acetone/water (50:50) solution containing 0.5% Tween 20 (polyoxyethylene sorbitan monolaurate, CAS RN 9005-64-5). The test plants are then grown under controlled conditions in a glasshouse (at 24/16° C., day/night; 14 hours light; 65% humidity) and watered twice daily. 13 days after application of the test compounds, for pre- and post-emergence, the test is evaluated visually for percentage phytotoxicity to each plant (where 100%=total damage to plant; 0%=no damage to plant).\n(§2) Lolium perenne (LOLPE), Triticum aestivum (TRZAW, winter wheat), Alopecurus myosuroides (ALOMY), Echinochloa crus-galli (ECHCG), and Avena fatua (AVEFA). All these are grassy monocotyledonous weeds and/or (for wheat) grassy crops."}, "Avena fatua (AVEFA) [2]": {"tested_on": "Avena fatua (AVEFA)", "experiment": "Test 1A glasshouse assay, pre-emergence herbicidal activity", "settings": "312 h, 13 days after application, read-out: Pre-Emergence Herbicidal Activity (% Phytotoxicity) AVEFA", "protocol": "as §1, §2"}, "Lolium perenne (LOLPE)": {"tested_on": "Lolium perenne (LOLPE)", "experiment": "Test 1A glasshouse assay, pre-emergence herbicidal activity", "settings": "312 h, 13 days after application, read-out: Pre-Emergence Herbicidal Activity (% Phytotoxicity) LOLPE", "protocol": "as §1, §2"}, "[3]": {"tested_on": "Winter Wheat (variety ‘Hereward’)", "experiment": "Test 1B glasshouse assay, post-emergence phytotoxicity on winter wheat", "settings": "Triticum aestivum, 312 h, 13 days after application, read-out: Post-Emergence Herbicidal Activity (% Phytotoxicity) Winter Wheat (variety ‘Hereward’)", "protocol": "Seeds of the Winter Wheat variety ‘Hereward’ were sown in standard soil (usually sandy soil) in pots. After 8 days cultivation under controlled conditions in a glasshouse (at 24/16° C., day/night; 14 hours light; 65% humidity), which is post-emergence, the plants were sprayed with an aqueous spray solution derived from the formulation of the technical active ingredient (compound) in acetone/water (50:50) solution containing 0.5% Tween 20 (polyoxyethylene sorbitan monolaurate, CAS RN 9005-64-5). The test plants were then grown on in a glasshouse under controlled conditions (at 24/16° C., day/night; 14 hours light; 65% humidity) and watered twice daily. 13 days after application of the test compounds, the test was evaluated visually for percentage phytotoxicity to each plant (where 100%=total damage to plant; 0%=no damage to plant)."}, "[4]": {"tested_on": "Cloquintocet-mexyl seed-treated Winter Wheat (variety ‘Hereward’)", "experiment": "Test 1B glasshouse assay, post-emergence phytotoxicity on winter wheat whose seed has been treated with cloquintocet-mexyl", "settings": "Triticum aestivum, 312 h, seed treated with cloquintocet-mexyl 0.5 g/kg dry seed, 13 days after application, read-out: Post-Emergence Herbicidal Activity (% Phytotoxicity) Cloquintocet-mexyl seed-treated Winter Wheat (variety ‘Hereward’)", "protocol": "Seeds of the Winter Wheat variety ‘Hereward’ were seed treated with a wettable powder formulation of the cereal herbicide safener, cloquintocet-mexyl, at a rate of 0.5 grams per kilogram of dry seed, prior to the initiation of glasshouse testing. Three seeds were sown per 1.5 inch plastic pot into a standard soil (usually sandy soil) at a depth of 1 cm, prior to application of the test compounds and were watered and grown under controlled conditions in a glasshouse (at 24/16° C., day/night; 14 hours light; 65% humidity). After 8 days cultivation under these controlled conditions, the plants were sprayed post-emergence with an aqueous spray solution derived from the formulation of the technical active ingredient (compound) in acetone/water (50:50) solution containing 0.5% Tween 20 (polyoxyethylene sorbitan monolaurate, CAS RN 9005-64-5). The test plants were then grown on in a glasshouse under controlled conditions (at 24/16° C., day/night; 14 hours light; 65% humidity) and watered twice daily. 13 days after application of the test compounds, the test was evaluated visually for percentage phytotoxicity to each plant (where 100%=total damage to plant; 0%=no damage to plant)."}, "Avena fatua (AVEFA) [5]": {"tested_on": "Avena fatua (AVEFA)", "experiment": "Test 1A glasshouse assay, post-emergence herbicidal activity", "settings": "312 h, 13 days after application, read-out: Post-Emergence Herbicidal Activity (% Phytotoxicity) AVEFA", "protocol": "as §1\nLolium perenne (LOLPE), Triticum aestivum (TRZAW, winter wheat, variety ‘Hereward’), Alopecurus myosuroides (ALOMY), Echinochloa crus-galli (ECHCG), and Avena fatua (AVEFA). All these are grassy monocotyledonous weeds and/or (for wheat) grassy crops."}}, "data": [{"smiles": "CC#Cc1cc(C)c(C2C(=O)C(Cc3ccccn3)N(C)C2=O)c(C)c1", "note": "(stereo not drawn) [Compound A50, 3-(2,6-dimethyl-4-prop-1-ynyl-phenyl)-1-methyl-5-(2-pyridylmethyl)pyrrolidine-2,4-dione]", "values": [{"measurement": "inhibition at 62.5 g/ha", "setting": "[1]; 62.5 g/ha", "value": 70, "unit": "%"}, {"measurement": "inhibition at 250 g/ha", "setting": "[1]; 250 g/ha", "value": 90, "unit": "%"}, {"measurement": "inhibition at 62.5 g/ha", "setting": "Avena fatua (AVEFA) [2]; 62.5 g/ha", "value": 60, "unit": "%"}, {"measurement": "inhibition at 250 g/ha", "setting": "Avena fatua (AVEFA) [2]; 250 g/ha", "value": 70, "unit": "%"}, {"measurement": "inhibition at 62.5 g/ha", "setting": "Lolium perenne (LOLPE); 62.5 g/ha", "value": 70, "unit": "%"}, {"measurement": "inhibition at 250 g/ha", "setting": "Lolium perenne (LOLPE); 250 g/ha", "value": 100, "unit": "%"}, {"measurement": "inhibition at 15.625 g/ha", "setting": "[3]; 15.625 g/ha", "value": 30, "unit": "%"}, {"measurement": "inhibition at 62.5 g/ha", "setting": "[3]; 62.5 g/ha", "value": 70, "unit": "%"}, {"measurement": "inhibition at 250 g/ha", "setting": "[3]; 250 g/ha", "value": 80, "unit": "%"}, {"measurement": "inhibition at 15.625 g/ha", "setting": "[4]; 15.625 g/ha", "value": 0, "unit": "%"}, {"measurement": "inhibition at 62.5 g/ha", "setting": "[4]; 62.5 g/ha", "value": 40, "unit": "%"}, {"measurement": "inhibition at 250 g/ha", "setting": "[4]; 250 g/ha", "value": 60, "unit": "%"}, {"measurement": "inhibition at 15.625 g/ha", "setting": "Avena fatua (AVEFA) [5]; 15.625 g/ha", "value": 50, "unit": "%"}, {"measurement": "inhibition at 62.5 g/ha", "setting": "Avena fatua (AVEFA) [5]; 62.5 g/ha", "value": 70, "unit": "%"}, {"measurement": "inhibition at 250 g/ha", "setting": "Avena fatua (AVEFA) [5]; 250 g/ha", "value": 100, "unit": "%"}]}]}
